Test results as given in patent US6355619B1, “Peptide tumor cell growth inhibitors” (Board of Regents, The University of Texas System, priority 1996, dated 2002).

How the values were obtained:
[1] = biological target: T1, GRO binding to human neutrophils (Homo sapiens, UniProt P25025); test: Binding of radioiodinated GRO/MGSA to human neutrophils; conditions: 1 nM GRO
T1 construct: endogenous in cells; host or cells: human neutrophils
Description: FIG. 10. Ac-RRWWCX (SEQ ID NO:23) Inhibits Binding of GRO and MIP2β to human neutrophils. Radioiodinated MIP2β and GRO/MGSA were mixed with various concentration of Ac-RRWWCR-NH2 and incubated at room temperature for 15 min. Neutrophil suspension (1×10^6 cells in 160 μl PBS containing 0.1% BSA) was added to 40 μl of the mixture and incubated for 90 min on ice. The radioactivity bound to the cells was separated from free radioactivity by centrifugation through an oil layer. The % binding inhibition was calculated as follows: [formula]
MIP2β and GRO/MGSA were radioiodinated using Bolten Hunter reagent. The radioiodinated components were mixed with various concentration of the Ac-RRWWCX-NH2 (SEQ ID NO:23) peptide and incubated at room temperature for 15 min. Neutrophil suspension (1×10^6 cells in 160 μl PBS containing 0.1% BSA) was added to 40 μl of the mixture and incubated for 90 min on ice. The radioactivity bound to the cells was separated from free radioactivity by centrifugation through an oil layer. The bound radioactivity is an indication of bound CXC intercrine peptide. The % binding inhibition in the presence of Ac-RRWWCX-NH2 (SEQ ID NO:23) was calculated as follows: [formula]
where B is bound radioactivity in the presence of the peptide, T is bound radioactivity in the absence of the peptide, and NSP is bound radioactivity in the presence of excess nonlabeled ligand.

[2] = test system: fMLP-induced neutrophil chemotaxis; test: Neutrophil chemotaxis stimulated by fMLP; format: cell-based, human; conditions: 10 nM fMLP
Description: FIG. 7. The Effect of Ac-RRWWCR-NH2 (SEQ ID NO:1) on Neutrophil Chemotaxis. Chemotaxis was performed in the presence of increasing concentration of Ac-RRWWCR-NH2 (SEQ ID NO:1) in both upper and lower chamber. Stimulants added to lower chamber were 10 nM IL-8 (●), 10 nM fMLP (▪), or media alone (◯) as control. Analysis of variance was used for multiple comparison.
Chemotaxis was performed using the leading front method as described by Zigmond and Hirsh (1973). IL-8 or controls were placed in the lower well of a Boyden chamber. A five micron pore size, 100 μm. thick cellulose nitrate filter (Sartorius Filter,. Inc., San Francisco, Calif.) was placed on the surface and the chamber was then assembled. A 200 μl aliquot of the neutrophil preparation (1×10^6 cells/ml) in RPMI-1640 media containing 1% BSA was added to the top of the filter and incubated at 37° C. for 30 min. The filter was then fixed, stained and mounted on a glass microscope slide. The leading front was determined by the position of the leading two cells. The distance that the leading two cells had moved through the filter was measured for six fields on each filter. The measurements were made with four filters for each set of conditions.

[3] = test system: MGSA/GROα receptors on Hs 294T melanoma cells; test: Binding of 125I-MGSA/GROα to Hs 294T melanoma cells; set-up: species or system human; conditions: 1 nM 125I-labeled MGSA/GROα, read-out: EC50, inhibition of MGSA/GROα binding
Description: (§1) FIG. 11A. The binding of ^125I-labeled MGSA/GROα to melanoma cell lines, Hs 294T and RPMI-7951. The melanoma cells, 1×10^5, were incubated with 1 nM ^125I-MGSA/GROα in the presence of various concentrations of unlabeled MGSA/GROα. Binding inhibition curve with Hs 294T (closed circles) and RPMI-7951 (open circles). The lines shown in the graph are the best fit curves calculated using the London II computer program.
(§2) FIG. 13. The effect of Antileukinate on the binding of radiolabeled MGSA/GROα to the melanoma cell lines. The melanoma cells, Hs 294T (closed circles) and RPMI-7951 (open circles), were incubated with 1 nM ^125I-MGSA/GROα in the presence of different concentrations of Antileukinate. The lines shown in the graph are the best fit curves calculated using the London II computer program.
(§3) Recombinant human MGSA/GROα and IL-8 were purchased form Pepro Tech Inc. (Rocky Hill, N.J.) and radioactively labeled using ^125I-labeled Bolton-Hunter reagent (DuPont-NEN, Wilmington, Del.) (Bolton and Hunter, 1973). The labeled proteins were isolated using Sephadex G-25 column (Column PD-10, Pharmacia) pre-equilibrated with PBS containing 0.1% gelatin and stored at −70° C. after the addition of 1% bovine serum albumin.
(§4) Binding studies with melanoma cell lines were performed by the method of Horuk and colleagues (Horuk et al., 1993). Briefly, the cells (1×10^5 cells/well) in 24-well plates were washed two times with Hank's Balanced Salt Solution and incubated with ^125I-labeled MGSA/GROα or IL-8 in the buffer containing 1% bovine serum albumin at 4° C. for 3 hr. The incubation was terminated by vacuum aspiration of the supernatant. The cells were washed three times in binding buffer, solubilized by the addition of 200 μl of 1% SDS, and transferred to vials for counting. The non-specific binding was estimated by measuring the binding in the presence of 100-fold excess of non-labeled ligand. The binding parameters were calculated using the Lundon II computer program (Lundon Software Inc., Chagrin Falls, Ohio).

[4] = test system: MGSA/GROα receptors on RPMI-7951 melanoma cells; test: Binding of 125I-MGSA/GROα to RPMI-7951 melanoma cells; conditions: RPMI-7951, 1 nM 125I-labeled MGSA/GROα; read-out: EC50, inhibition of MGSA/GROα binding
Description: as §1, §2, §3, §4

[5] = test system: RPMI-7951 melanoma cells; test: Cell growth assay, RPMI-7951; format: cell-based
Description: FIG. 15B. The effect of Antileukinate on the growth of melanoma cells. Melanoma cell lines and a control liver cancer cell line (2×10^4 cells/well) in […] were cultured in a 24 well tissue culture plate in the presence of various concentrations of Antileukinate for 3 d. The culture media were changed to fresh media containing the same concentration of Antileukinate every 24 hr during the incubation period. After incubation, the cells were collected and the cell number was counted using a hemocytometer. RPMI-7951 cell line. Analysis of variance was used for multiple comparison.
The cell lines (2×10^4 cells/well) in 500 μl cell culture medium were grown in 24 well tissue culture plates. After the cells adhered to the plate, the supernatants were aspirated and 500 μl of media containing various concentrations of Antileukinate were added to the wells. The cells were cultured for period indicated in the text. The culture media were changed to fresh media every 24 hr. After incubation, the cells were detached with trypsin-EDTA solution (Life Technologies Inc., Gaithersburg, Md., containing 0.05% of trypsin and 0.53 mM of EDTA in Hanks Balanced Salt Solution without Ca^2+ and Mg^2+) and the cell number was counted using a hemocytometer.

[6] = test system: lung adenocarcinoma cell line KS-LU-1; test: Tumor cell growth, KS-LU-1; format: cell-based
[7] = test system: adenocarcinoma from colon Caco-2; test: Tumor cell growth, Caco-2; format: cell-based
[8] = test system: human neutrophils; test: Binding of the peptide to human neutrophils

T1 sequence (P25025 whole entry): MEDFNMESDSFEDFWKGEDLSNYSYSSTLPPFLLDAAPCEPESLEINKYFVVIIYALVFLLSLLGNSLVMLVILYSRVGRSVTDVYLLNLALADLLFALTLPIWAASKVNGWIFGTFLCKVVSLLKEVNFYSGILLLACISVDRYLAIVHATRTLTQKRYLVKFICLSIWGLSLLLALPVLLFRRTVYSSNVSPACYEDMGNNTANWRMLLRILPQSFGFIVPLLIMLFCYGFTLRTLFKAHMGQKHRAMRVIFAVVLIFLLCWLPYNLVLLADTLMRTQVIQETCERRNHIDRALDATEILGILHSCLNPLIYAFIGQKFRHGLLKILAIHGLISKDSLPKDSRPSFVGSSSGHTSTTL

Substance: RRWWCR [Ac-RRWWCR-NH2]
- effect on binding of GRO to neutrophils [1]: effectively suppress the binding
- effect on chemotaxis induced by fMLP [2]: had no effect on chemotaxis
- EC50 [3]: ~1000 nM
- EC50 [4]: ~1000 nM
- cell growth at 100 μM peptide ([5]; RPMI-7951, 100 μM): suppressed the cell growth almost completely
- EC50 ([5]; RPMI-7951, 72 hr, medium changed every 24 hr, read-out: ED50, cell growth inhibition): 31000 nM
- effect on cell growth [6]: inhibits growth
- effect on cell growth [7]: inhibits growth
- binding of the peptide to human neutrophils [8]: binds to human neutrophils
